Data on three molecules can be found in patent US20080009534A1, “S[…] DERIVATIVES USEFUL AS AN[…] A[…] AND METHOD” (Bristol-Myers Squibb Company, priority 2006, published 2008).

For data set [1], the target named is T1, human PPARα receptor (Homo sapiens, UniProt Q07869).
T1 construct: transiently transfecting GAL4-hPPARα-LBD or GAL4-hPPARγ-LBD constructs; expressed in transfected cells; host or cells: HEK293 cells stably expressing 5×GAL4RE-Luciferase
T1 sequence (Q07869 239-466 limits assumed): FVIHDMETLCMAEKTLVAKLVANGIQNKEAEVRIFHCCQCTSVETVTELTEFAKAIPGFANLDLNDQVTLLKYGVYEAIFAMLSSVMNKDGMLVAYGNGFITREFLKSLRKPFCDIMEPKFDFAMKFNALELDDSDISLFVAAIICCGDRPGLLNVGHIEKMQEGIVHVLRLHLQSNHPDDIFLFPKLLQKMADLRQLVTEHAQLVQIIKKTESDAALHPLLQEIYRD
The data set can be described thus: In vitro PPAR agonist functional assay, GAL4-hPPARα-LBD transactivation in HEK293 cells (luciferase). The data set is classed as cell-based. Conditions: for EC50: GAL4-hPPARα-LBD in HEK293 cells, half-maximal fold induction; for Emax at 1 µM: HEK293, activity at 1 μM relative to GW2331 at 1 μM, read-out: PPARα % efficacy (intrinsic activity). On the procedure: (§1) In vitro PPAR agonist functional assays were performed by transiently transfecting GAL4-hPPARα-LBD or GAL4-hPPARγ-LBD constructs respectively into HEK293 (human embryonic kidney) cells stably expressing 5×GAL4RE-Luciferase. Data were normalized for efficacy at 1 μM to known agonists (BRL-49653 for hPPARγ and GW-233 1 for hPPARα). Agonist binding results in an increase in luciferase enzyme activity which can be monitored by measuring luminescence upon cell lysing and the addition of luciferin substrate. EC50 values (μM) for PPARα or γ agonist activity were calculated as the concentration of the test ligand (μM) required for the half-maximal fold induction of HEK293 cells. The “intrinsic activity” of a test ligand is defined as its activity at 1 μM (expressed as a percentage) relative to the activity of the primary standards (GW2331 for PPARα and BRL-49653/rosiglitazone for PPARγ respectively, both tested at 1 μM). […] The ratios of the PPARα:PPARγ EC50 values of compounds of formula I are between 1:2 and 2:1 in this functional assay.

In data set [2] the target is T2, human PPARγ receptor (Homo sapiens, UniProt P37231).
T2 construct: transiently transfecting GAL4-hPPARα-LBD or GAL4-hPPARγ-LBD constructs; expressed in transfected cells; host or cells: HEK293 cells stably expressing 5×GAL4RE-Luciferase
T2 sequence (P37231 238-503 limits assumed): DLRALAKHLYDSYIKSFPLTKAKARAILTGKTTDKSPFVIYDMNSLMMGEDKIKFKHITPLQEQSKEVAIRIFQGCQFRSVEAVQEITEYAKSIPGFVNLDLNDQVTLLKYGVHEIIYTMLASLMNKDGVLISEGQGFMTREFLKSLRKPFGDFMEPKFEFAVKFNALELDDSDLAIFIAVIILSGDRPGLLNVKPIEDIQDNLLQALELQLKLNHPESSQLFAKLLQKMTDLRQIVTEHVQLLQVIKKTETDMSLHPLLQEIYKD
The data set can be described thus: In vitro PPAR agonist functional assay, GAL4-hPPARγ-LBD transactivation in HEK293 cells (luciferase). Particulars: for EC50: GAL4-hPPARγ-LBD in HEK293 cells, half-maximal fold induction; for Emax at 1 µM: HEK293, activity at 1 μM relative to BRL-49653/rosiglitazone at 1 μM, read-out: PPARγ % efficacy (intrinsic activity). Format: cell-based. The procedure: as §1

Data set [3] has as its system db/db mice. Kind of data set: db/db mouse model, plasma glucose and triglycerides after 14 days of oral dosing. The data set is classed as in vivo. Conditions: female db/db mice, 10 mg/kg orally once daily for 14 days, fasted plasma on day 15. On the procedure: 8 week old female db/db mice were dosed orally once daily for 14 days at 10 mg/kg with the Example 1a-1c compounds using a vehicle comprised of 5% 1-methyl-pyrrolidinone, 20% polyethylene glycol (PEG400) and 75% 20 mM dibasic sodium phosphate. Plasma samples were obtained from mice fasted overnight (18 hours after last administration of compound) on day 15. The plasma glucose and triglycerides levels were determined and the percentage reductions in both parameters of drug-treated animal relative to vehicle-treated animals are shown in the table below.
It is known by one skilled in the art that the compounds of the present invention normalize plasma glucose levels and decrease plasma triglycerides at doses ≧10 mg/kg in rodent models of type 2 diabetes (e.g. the db/db mouse). The typical administration of said compounds is expected to be between 0.1 to 2,000 mg/day in the clinical setting, and is preferably between 0.5 to 100 mg/day. (Reference for db/db mouse as an in vivo rodent model for antidiabetic efficacy: T. Harrity et al, Diabetes, 2006, 55, 240-248).

What is called EC50 is the concentration that produces a half-maximal response. Consider `Cc1cc(OC(=O)N(CC(=O)O)[C@@H](C)c2ccc(OCc3nc(-c4ccccc4)oc3C)cc2)ccc1F` [Compound 1b], for which, in data set [1], the concentration for a half-maximal effect (EC50) turned out to be 8 ± 2 nM and the Emax at 1 µM came out at 95%. Besides, in data set [2], the EC50 came out at 4 ± 2 nM and the Emax at 1 µM came out at 126%. Besides, in data set [3], the “% Reduction in Plasma Glucose vs Vehicle-control group” value (“% Reduction in Plasma Glucose” for short) is on record as −34% and the “% Reduction in Plasma Triglycerides vs Vehicle-control group” value (“% Reduction in Plasma Triglycerides” below) is −50%.

For the molecule `COc1cccc(OC(=O)N(CC(=O)O)[C@@H](C)c2ccc(OCc3nc(-c4ccc(C)cc4)oc3C)cc2)c1` [Compound 1c], in data set [1], a half-maximal effect (EC50) was put at 6 ± 2 nM and the Emax at 1 µM was 82%. Also, in data set [2], the EC50 was found to be 5 ± 2 nM and the Emax at 1 µM came to 124%. In addition, in data set [3], the “% Reduction in Plasma Glucose” value was −34% and the “% Reduction in Plasma Triglycerides” value is −61%.

Usually melting point stands for the temperature, or range, at which the solid turns liquid. `Cc1ccc(OC(=O)N(CC(=O)O)[C@@H](C)c2ccc(OCc3nc(-c4ccccc4)oc3C)cc2)cc1F` [Compound 1a] returned a melting point of 152.6 °C. In data set [1], the EC50 worked out at 6 ± 1 nM and the Emax at 1 µM amounted to 92%. Further, in data set [2], the EC50 came out at 3 ± 1 nM and the Emax at 1 µM worked out at 128%. In data set [3], the “% Reduction in Plasma Glucose” value was −45% and the “% Reduction in Plasma Triglycerides” value is listed as −45%.
